Key:
Experiment in all cases: relative viability (nuclei count vs DMSO), 5 days (fraction); higher = more cells survive
Masitinib + Alpelisib = compound: Cc1ccc(NC(=O)c2ccc(CN3CCN(C)CC3)cc2)cc1Nc1nc(-c2cccnc2)cs1 [Masitinib] + Cc1nc(NC(=O)N2CCC[C@H]2C(N)=O)sc1-c1ccnc(C(C)(C)C(F)(F)F)c1 [Alpelisib] (partner 2 µM)
Method in brief: (§1)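 Nuclei were stained with Hoechst during a one-step fixation (final 0.05% Triton X-100, 1% formaldehyde, 1 ug/ml Hoechst) carried out 5 days after dosing, then counted on 4× images. The cells, lung cancer lines in 1536-well plates, had been dosed by pin tool the day after seeding with one drug alone or a fixed anchor-drug dose plus five library-drug doses (not always all listed) in √10 steps. Relative viability is the nuclei count in treated wells divided by that in vehicle wells, and each value is the median of duplicate plates.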

[1] = compound: CC1=CC(=CC=C1)NC2=NC(=CS2)C3=CC=NC=C3 + CS(=O)(=O)CCNCc1ccc(-c2ccc3ncnc(Nc4ccc(OCc5cccc(F)c5)c(Cl)c4)c3c2)o1 [Lapatinib] (partner 2 µM)
Method in brief: as §1

Masitinib + Lapatinib = compound: Cc1ccc(NC(=O)c2ccc(CN3CCN(C)CC3)cc2)cc1Nc1nc(-c2cccnc2)cs1 [Masitinib] + CS(=O)(=O)CCNCc1ccc(-c2ccc3ncnc(Nc4ccc(OCc5cccc(F)c5)c(Cl)c4)c3c2)o1 [Lapatinib] (partner 2 µM)
Method in brief: as §1

[2] = compound: CC1=CC(=CC=C1)NC2=NC(=CS2)C3=CC=NC=C3 + CS(=O)(=O)N1CCN(Cc2cc3nc(-c4cccc5[nH]ncc45)nc(N4CCOCC4)c3s2)CC1 [Pictilisib] (partner 1 µM)
Method in brief: as §1

In the case of NCI-H1563, the relative viability (Masitinib + Alpelisib; first compound 0.01 µM) is reported as 1.02, the relative viability (Masitinib + Alpelisib; first compound 0.03162 µM) is reported as 0.964 and the relative viability (Masitinib + Alpelisib; first compound 0.1 µM) is reported as 0.839. For the same cell line, the relative viability (Masitinib + Alpelisib; first compound 0.3162 µM) was 1.13, the relative viability (Masitinib + Alpelisib; first compound 1 µM) was 0.931 and the relative viability ([1]; first compound 0.08 µM) was 0.912. It also gave a relative viability ([1]; first compound 0.253 µM) of 0.64, a relative viability ([1]; first compound 0.8 µM) of 0.912 and a relative viability ([1]; first compound 2.53 µM) of 0.761. For the same cell line, the relative viability ([1]; first compound 8 µM) was 0.634, the relative viability (Masitinib + Lapatinib; first compound 0.01 µM) was 0.945 and the relative viability (Masitinib + Lapatinib; first compound 0.03162 µM) was 0.941. It also gave a relative viability (Masitinib + Lapatinib; first compound 0.1 µM) of 0.969, a relative viability (Masitinib + Lapatinib; first compound 0.3162 µM) of 0.945 and a relative viability (Masitinib + Lapatinib; first compound 1 µM) of 0.732. It also gave a relative viability ([2]; first compound 0.08 µM) of 0.675, a relative viability ([2]; first compound 0.253 µM) of 0.616 and a relative viability ([2]; first compound 0.8 µM) of 0.712. It also gave a relative viability ([2]; first compound 2.53 µM) of 0.617 and a relative viability ([2]; first compound 8 µM) of 0.592.

In the case of COR-L23, the relative viability (Masitinib + Alpelisib; first compound 0.01 µM) is reported as 0.862, the relative viability (Masitinib + Alpelisib; first compound 0.03162 µM) is reported as 0.81 and the relative viability (Masitinib + Alpelisib; first compound 0.1 µM) is reported as 0.861. For the same cell line, the relative viability (Masitinib + Alpelisib; first compound 0.3162 µM) was 0.848, the relative viability (Masitinib + Alpelisib; first compound 1 µM) was 0.852 and the relative viability ([1]; first compound 0.08 µM) was 0.709. For the same cell line, the relative viability ([1]; first compound 0.253 µM) was 0.878, the relative viability ([1]; first compound 0.8 µM) was 0.651 and the relative viability ([1]; first compound 2.53 µM) was 1.07. It also gave a relative viability ([1]; first compound 8 µM) of 0.881, a relative viability (Masitinib + Lapatinib; first compound 0.01 µM) of 0.715 and a relative viability (Masitinib + Lapatinib; first compound 0.03162 µM) of 1.2. It also gave a relative viability (Masitinib + Lapatinib; first compound 0.1 µM) of 0.896, a relative viability (Masitinib + Lapatinib; first compound 0.3162 µM) of 1.2 and a relative viability (Masitinib + Lapatinib; first compound 1 µM) of 1.17. For the same cell line, the relative viability ([2]; first compound 0.08 µM) was 0.539, the relative viability ([2]; first compound 0.253 µM) was 0.57 and the relative viability ([2]; first compound 0.8 µM) was 0.451. It also gave a relative viability ([2]; first compound 2.53 µM) of 0.714 and a relative viability ([2]; first compound 8 µM) of 0.661.

ABC-1 showed a relative viability (Masitinib + Alpelisib; first compound 0.01 µM) of 1.26, a relative viability (Masitinib + Alpelisib; first compound 0.03162 µM) of 1.04 and a relative viability (Masitinib + Alpelisib; first compound 0.1 µM) of 1.01. It also gave a relative viability (Masitinib + Alpelisib; first compound 0.3162 µM) of 0.813, a relative viability (Masitinib + Alpelisib; first compound 1 µM) of 1.01 and a relative viability ([1]; first compound 0.08 µM) of 1.24. It also gave a relative viability ([1]; first compound 0.253 µM) of 1.14, a relative viability ([1]; first compound 0.8 µM) of 1.03 and a relative viability ([1]; first compound 2.53 µM) of 1.02. It also gave a relative viability ([1]; first compound 8 µM) of 1.01, a relative viability (Masitinib + Lapatinib; first compound 0.01 µM) of 1.54 and a relative viability (Masitinib + Lapatinib; first compound 0.03162 µM) of 1.15. It also gave a relative viability (Masitinib + Lapatinib; first compound 0.1 µM) of 1.21, a relative viability (Masitinib + Lapatinib; first compound 0.3162 µM) of 1.37 and a relative viability (Masitinib + Lapatinib; first compound 1 µM) of 1.16. The relative viability ([2]; first compound 0.08 µM) was 0.48, the relative viability ([2]; first compound 0.253 µM) was 0.665 and the relative viability ([2]; first compound 0.8 µM) was 0.686. It also gave a relative viability ([2]; first compound 2.53 µM) of 0.634 and a relative viability ([2]; first compound 8 µM) of 0.486.

PC-14 gave a relative viability (Masitinib + Alpelisib; first compound 0.01 µM) of 0.915, a relative viability (Masitinib + Alpelisib; first compound 0.03162 µM) of 0.865 and a relative viability (Masitinib + Alpelisib; first compound 0.1 µM) of 1.11. For the same cell line, the relative viability (Masitinib + Alpelisib; first compound 0.3162 µM) was 1.01, the relative viability (Masitinib + Alpelisib; first compound 1 µM) was 0.846 and the relative viability ([1]; first compound 0.08 µM) was 0.295. The relative viability ([1]; first compound 0.253 µM) was 0.258, the relative viability ([1]; first compound 0.8 µM) was 0.338 and the relative viability ([1]; first compound 2.53 µM) was 0.312. It also gave a relative viability ([1]; first compound 8 µM) of 0.292, a relative viability (Masitinib + Lapatinib; first compound 0.01 µM) of 0.286 and a relative viability (Masitinib + Lapatinib; first compound 0.03162 µM) of 0.314. For the same cell line, the relative viability (Masitinib + Lapatinib; first compound 0.1 µM) was 0.315, the relative viability (Masitinib + Lapatinib; first compound 0.3162 µM) was 0.185 and the relative viability (Masitinib + Lapatinib; first compound 1 µM) was 0.309. It also gave a relative viability ([2]; first compound 0.08 µM) of 0.719, a relative viability ([2]; first compound 0.253 µM) of 0.666 and a relative viability ([2]; first compound 0.8 µM) of 0.634. For the same cell line, the relative viability ([2]; first compound 2.53 µM) was 0.752 and the relative viability ([2]; first compound 8 µM) was 0.598.

For A549, the relative viability (Masitinib + Alpelisib; first compound 0.01 µM) was 0.773, the relative viability (Masitinib + Alpelisib; first compound 0.03162 µM) was 0.712 and the relative viability (Masitinib + Alpelisib; first compound 0.1 µM) was 1.01. It also gave a relative viability (Masitinib + Alpelisib; first compound 0.3162 µM) of 0.938, a relative viability (Masitinib + Alpelisib; first compound 1 µM) of 0.683 and a relative viability ([1]; first compound 0.08 µM) of 0.863. It also gave a relative viability ([1]; first compound 0.253 µM) of 0.893, a relative viability ([1]; first compound 0.8 µM) of 0.898 and a relative viability ([1]; first compound 2.53 µM) of 0.891. The relative viability ([1]; first compound 8 µM) was 0.809, the relative viability (Masitinib + Lapatinib; first compound 0.01 µM) was 0.995 and the relative viability (Masitinib + Lapatinib; first compound 0.03162 µM) was 0.948. It also gave a relative viability (Masitinib + Lapatinib; first compound 0.1 µM) of 1.05, a relative viability (Masitinib + Lapatinib; first compound 0.3162 µM) of 0.942 and a relative viability (Masitinib + Lapatinib; first compound 1 µM) of 0.963. It also gave a relative viability ([2]; first compound 0.08 µM) of 0.399, a relative viability ([2]; first compound 0.253 µM) of 0.472 and a relative viability ([2]; first compound 0.8 µM) of 0.524. For the same cell line, the relative viability ([2]; first compound 2.53 µM) was 0.525 and the relative viability ([2]; first compound 8 µM) was 0.418.

Work on A-427 yielded a relative viability (Masitinib + Alpelisib; first compound 0.03162 µM) of 1.09, a relative viability (Masitinib + Alpelisib; first compound 0.3162 µM) of 1.05 and a relative viability (Masitinib + Alpelisib; first compound 1 µM) of 1.08. It also gave a relative viability ([1]; first compound 0.08 µM) of 0.972, a relative viability ([1]; first compound 0.253 µM) of 1.09 and a relative viability ([1]; first compound 0.8 µM) of 1.03. It also gave a relative viability ([1]; first compound 8 µM) of 0.892, a relative viability (Masitinib + Lapatinib; first compound 0.03162 µM) of 1.02 and a relative viability (Masitinib + Lapatinib; first compound 0.3162 µM) of 1.17. It also gave a relative viability (Masitinib + Lapatinib; first compound 1 µM) of 1.03, a relative viability ([2]; first compound 0.08 µM) of 0.633 and a relative viability ([2]; first compound 0.253 µM) of 0.71. It also gave a relative viability ([2]; first compound 0.8 µM) of 0.692 and a relative viability ([2]; first compound 8 µM) of 0.655.

Cell Line NCI-H1915 has a relative viability (Masitinib + Alpelisib; first compound 0.03162 µM) of 1.06, a relative viability (Masitinib + Alpelisib; first compound 0.1 µM) of 1.07 and a relative viability (Masitinib + Alpelisib; first compound 0.3162 µM) of 1.04. It also gave a relative viability (Masitinib + Alpelisib; first compound 1 µM) of 1.07, a relative viability ([1]; first compound 0.08 µM) of 0.91 and a relative viability ([1]; first compound 0.253 µM) of 0.892. For the same cell line, the relative viability ([1]; first compound 0.8 µM) was 1.01, the relative viability ([1]; first compound 2.53 µM) was 0.876 and the relative viability ([1]; first compound 8 µM) was 0.823. For the same cell line, the relative viability (Masitinib + Lapatinib; first compound 0.03162 µM) was 1.06, the relative viability (Masitinib + Lapatinib; first compound 0.1 µM) was 0.678 and the relative viability (Masitinib + Lapatinib; first compound 0.3162 µM) was 1.06. For the same cell line, the relative viability (Masitinib + Lapatinib; first compound 1 µM) was 0.984, the relative viability ([2]; first compound 0.08 µM) was 0.834 and the relative viability ([2]; first compound 0.253 µM) was 0.853. The relative viability ([2]; first compound 0.8 µM) was 0.888, the relative viability ([2]; first compound 2.53 µM) was 0.759 and the relative viability ([2]; first compound 8 µM) was 0.92.

With LCLC-97TM1 the relative viability (Masitinib + Alpelisib; first compound 0.01 µM) was 0.25, the relative viability (Masitinib + Alpelisib; first compound 0.03162 µM) was 0.241 and the relative viability (Masitinib + Alpelisib; first compound 0.1 µM) was 0.275. It also gave a relative viability (Masitinib + Alpelisib; first compound 0.3162 µM) of 0.402, a relative viability (Masitinib + Alpelisib; first compound 1 µM) of 0.27 and a relative viability ([1]; first compound 0.8 µM) of 1.04. For the same cell line, the relative viability ([1]; first compound 2.53 µM) was 1.03, the relative viability ([1]; first compound 8 µM) was 1.27 and the relative viability (Masitinib + Lapatinib; first compound 0.01 µM) was 0.767. The relative viability (Masitinib + Lapatinib; first compound 0.03162 µM) was 1.13, the relative viability (Masitinib + Lapatinib; first compound 0.1 µM) was 0.673 and the relative viability (Masitinib + Lapatinib; first compound 0.3162 µM) was 1.57. The relative viability (Masitinib + Lapatinib; first compound 1 µM) was 0.715, the relative viability ([2]; first compound 0.8 µM) was 0.282 and the relative viability ([2]; first compound 2.53 µM) was 0.207. For the same cell line, the relative viability ([2]; first compound 8 µM) was 0.198.
